Data reported in US9040061B2, “Topical formulation for administering a compound” (Rigel Pharmaceuticals, Inc., priority 2011, dated 2015).
pEC50, pIC50: −log10 of the molar value. In brackets after ≈: the same amount, converted by molar mass. Where a name gives a salt, the structure may show the parent alone. Read-outs that look alike come from different tables or passages of the source. Marks after values point to notes of the source that are not given here.

Key:
[1] = Solubility studies of compound I; format: physicochemical
[2] = Solubility studies of compound I; format: physicochemical; remark: listed apart in the source
Description: The solubility of compound I free base in water is only 2 μg/mL. […] Accordingly, the free base was utilized for the formulation development of compound I.

[3] = tested on: other cytokine (IL-1β and TNFα) signaling; assay: Other cytokine signaling; format: cell-based
[4] = molecular target: T1, Syk (Homo sapiens, UniProt P43405); assay: Human cell based assay against Syk; settings: human cell based assays, read-out: half maximal effective concentration (EC50)
T1 construct: endogenous in cells

[5] = tested on: cell proliferation; assay: Cell proliferation; format: cell-based
[6] = tested on: primary human T-cells; assay: Primary human T-cell proliferation assay stimulated with IL-2; format: cell-based; settings: IL-2, 72 hours, CellTiter-Glo
Source text: The JAK activity of compound I may further be characterized by assaying the effect of compound I on the proliferative response of primary human T-cells. In this assay, primary human T-cells derived from peripheral blood and pre-activated through stimulation of the T-cell receptor and CD28, proliferate in culture in response to the cytokine Interleukin-2 (IL-2). This proliferative response is dependent on the activation of JAK1 and JAK3 tyrosine kinases, which phosphorylate and activate the transcription factor Stat-5. The primary human T-cells are incubated with compound I in the presence of IL-2 for 72 hours and at the assay endpoint intracellular ATP concentrations are measured to assess cell viability. A reduction in cell proliferation compared to control conditions is indicative of inhibition of the JAK kinase pathway. An exemplary assay of this type is described in greater detail below.
Primary human T-cells derived from peripheral blood and pre-activated through stimulation of the T-cell receptor and CD28, proliferate in vitro in response to the cytokine Interleukin-2 (IL-2). […]
Proliferation was measured using CellTiter-Glo® Luminescent Cell Viability Assay (Promega), which determines the number of viable cells in culture based on quantitation of the ATP present, as an indicator of metabolically active cells. […]

[7] = tested on: human Ramos B cells stimulated with human IL-4 (JAK1 and JAK3, CD23 upregulation); assay: Ramos B-cell line stimulated with IL-4, CD23 upregulation (FACS); format: cell-based; settings: IL-4 50 units/mL for 20-24 hours, anti-CD23-PE FACS
Source text: One means of assaying for JAK inhibition is detection of the effect of compound I on the upregulation of downstream gene products. In the Ramos/IL4 assay, B-cells are stimulated with the cytokine Interleukin-4 (IL-4) leading to the activation of the JAK/Stat pathway through phosphorylation of the JAK family kinases, JAK1 and JAK3, which in turn phosphorylate and activate the transcription factor Stat-6. […] To study the effect of inhibitors (for example, the 2,4-substituted pyrimidinediamine compounds described herein) on the JAK1 and JAK3 kinases, human Ramos B cells are stimulated with human IL-4. Twenty to 24 hours post stimulation, cells are stained for upregulation of CD23 and analyzed using flow cytometry (FACS). […] An exemplary assay of this type is described in greater detail below.
B-cells stimulated with cytokine Interleukin-4 (IL-4) activate the JAK/Stat pathway through phosphorylation of the JAK family kinases, JAK-1 and JAK-3, which in turn phosphorylate and activate the transcription factor Stat-6. […] To study the effect of inhibitors on the JAK family kinases, human Ramos B cells are stimulated with human IL-4.
The Ramos B-cell line was acquired from ATCC (ATCC Catalog No. CRL-1596). […]
Cells were spun down and suspended in RPMI with 5% serum. […] Cells were then spun down and stained with anti-CD23-PE (BD Pharmingen, San Diego, Calif., Cat No. 555711) and analyzed by FACS. […]

[8] = tested on: receptor tyrosine kinase (RTK) signaling; assay: Receptor tyrosine kinase signaling; format: cell-based

With `C#CCOc1ccc(Nc2nc(Nc3ccc(C)c(S(N)(=O)=O)c3)ncc2F)cc1` [Compound I HCl, N2-(3-aminosulfonyl-4-methylphenyl)-5-fluoro-N4-[4-(prop-2-ynyloxy)phenyl]-2,4-pyrimidinediamine] the solubility ([1]; DMI, organic solvent or mixture, DMI (temperature not given), read-out: Solubility) was 400 µg/mL, the solubility ([1]; EtOH, organic solvent or mixture, EtOH (temperature not given), read-out: Solubility) was 300 µg/mL and the solubility ([1]; PEG400 (temperature not given)) was 2.6 ^e mg/mL. The solubility ([1]; PG) was 5.2 ^e mg/mL, the solubility ([1]; diethylene glycol monoethyl ether (Transcutol P), organic solvent or mixture, Diethylene glycol monoethyl ether (transcutol P), read-out: Solubility) was 900 µg/mL and the solubility ([1]; isopropyl myristate, oil or lipid, Isopropyl Myristate, read-out: Solubility) was 5 µg/mL. The solubility ([1]; propylene glycol laurate (Lauroglycol FCC), oil or lipid, Propylene Glycol Laurate (Lauroglycol FCC), read-out: Solubility) was 20 µg/mL, the solubility ([1]; propylene glycol monocaprylate (Capryol 90), oil or lipid, Propylene Glycol Monocaprylate (Capryol 90), read-out: Solubility) was 70 µg/mL and the solubility ([2]; 40% TPGS/60% PEG400, organic solvent or mixture, 40% TPGS/60% PEG400, read-out: Solubility) was 1700 µg/mL. The solubility ([2]; IPA, organic solvent or mixture, IPA, read-out: Solubility) was 37 µg/mL, the solubility ([2]; oleyl alcohol, oil or lipid, Oleyl alcohol, read-out: Solubility) was 200 µg/mL and the solubility ([2]; polyoxyglyceride (Labrafil M1944 CS), oil or lipid, Polyoxyglyceride (Labrafil M1944 CS), read-out: Solubility) was 70 µg/mL. It also gave a solubility ([2]; polyoxyglyceride (Labrasol), oil or lipid, Polyoxyglyceride (Labrasol), read-out: Solubility) of 1800 µg/mL and a solubility ([2]; triglyceride, oil or lipid, Triglyceride, read-out: Solubility) of 20 µg/mL.
In the case of `C#CCOc1ccc(Nc2nc(Nc3ccc(C)c(S(N)(=O)=O)c3)ncc2F)cc1` [Compound I besylate salt, N2-(3-aminosulfonyl-4-methylphenyl)-5-fluoro-N4-[4-(prop-2-ynyloxy)phenyl]-2,4-pyrimidinediamine], the solubility ([1]; PEG400 (temperature not given)) was 48000 µg/mL and the solubility ([1]; PG) was 15 ^d mg/mL.
With `C#CCOc1ccc(Nc2nc(Nc3ccc(C)c(S(N)(=O)=O)c3)ncc2F)cc1` [Compound I, N2-(3-aminosulfonyl-4-methylphenyl)-5-fluoro-N4-[4-(prop-2-ynyloxy)phenyl]-2,4-pyrimidinediamine] the “activity on other cytokine (IL-1β and TNFα) signaling” value [3] was “little or no activity”, the pEC50 [4] was roughly 6.85 and the solubility ([1]; 5% THF-95% PEG400, organic solvent or mixture, 5% THF-95% PEG400, read-out: Solubility) was 117000 µg/mL (≈ 274 mM). The solubility ([1]; 10% THF-90% PEG400, organic solvent or mixture, 10% THF-90% PEG400, read-out: Solubility) was 129000 µg/mL (≈ 302 mM), the solubility ([1]; 20% EtOH-80% PEG400, organic solvent or mixture, 20% EtOH-80% PEG400, read-out: Solubility) was 126000 µg/mL (≈ 295 mM) and the solubility ([1]; 20% H2O-80% THF, organic solvent or mixture, 20% H2O-80% THF, read-out: Solubility) was 133000 µg/mL (≈ 311 mM). It also gave a solubility ([1]; 50% EtOH-50% PEG400, organic solvent or mixture, 50% EtOH-50% PEG400, read-out: Solubility) of 136000 µg/mL (≈ 318 mM), a solubility ([1]; 90% THF-10% PEG400, organic solvent or mixture, 90% THF-10% PEG400, read-out: Solubility) of 75000 µg/mL (≈ 175 mM) and a solubility ([1]; EtOH, 25 °C, organic solvent or mixture, EtOH, determined at 25° C., read-out: Solubility) of 3200 µg/mL (≈ 7.49 mM). For the same compound, the solubility ([1]; Glycofurol, listed as Compound I free base) was >205 ^b mg/mL, the solubility ([1]; PEG400 (temperature not given), listed as Compound I free base) was 129 ^c mg/mL and the solubility ([1]; PEG400, 25 °C, organic solvent or mixture, PEG400, determined at 25° C., read-out: Solubility) was greater than 200000 µg/mL. The solubility ([1]; PEG400, determined at 25° C.) was 292000 µg/mL (≈ 683 mM), the solubility ([1]; PG, listed as Compound I free base) was 27 ^c mg/mL and the solubility ([1]; glycofurol, organic solvent or mixture, Glycofurol, read-out: Solubility) was greater than 200000 µg/mL. It also gave a solubility ([1]; glycofurol/water 8/2, organic solvent or mixture, Glycofurol/water 8/2, read-out: Solubility) of less than 205000 µg/mL, a solubility ([1]; glycofurol/water 9/1 w/w, organic solvent or mixture, Glycofurol/water 9/1 w/w, read-out: Solubility) greater than 202000 µg/mL and a solubility ([1]; water, 25 °C, water, determined at 25° C., read-out: Solubility) of 2 µg/mL (≈ 0.00468 mM). The “inhibition of cell proliferation” value [5] was “not a broad inhibitor of cell proliferation”, the pIC50 [6] was 9.74 and the pIC50 [7] was 10.25. The solubility ([2]; 4% H2O-96% THF, organic solvent or mixture, 4% H2O-96% THF, read-out: Solubility) was 77000 µg/mL (≈ 180 mM), the solubility ([2]; 12% H2O-88% THF, organic solvent or mixture, 12% H2O-88% THF, read-out: Solubility) was 202000 µg/mL (≈ 473 mM) and the solubility ([2]; 16% H2O-84% THF, organic solvent or mixture, 16% H2O-84% THF, read-out: Solubility) was 163000 µg/mL (≈ 381 mM). For the same compound, the solubility ([2]; 95% THF-5% PEG400, organic solvent or mixture, 95% THF-5% PEG400, read-out: Solubility) was 70000 µg/mL (≈ 164 mM), the solubility ([2]; DMI, 25 °C, organic solvent or mixture, DMI, determined at 25° C., read-out: Solubility) was 124000 µg/mL (≈ 290 mM) and the solubility ([2]; Miglyol 812N, oil or lipid, Miglyol 812N, read-out: Solubility) was 2300 µg/mL (≈ 5.38 mM). For the same compound, the “compound I concentration that can be obtained (solubility study)” value ([2]; at 45° C. in a formulation containing 14% water, 45% PEG400, and 20% PEG4500) was 120 mg/g, the solubility ([2]; castor oil, oil or lipid, Castor Oil, read-out: Solubility) was 7400 µg/mL (≈ 17.3 mM) and the solubility ([2]; water, 25 °C, water, 25° C., read-out: water solubility) was 2 µg/mL (≈ 0.00468 mM). For the same compound, the “activity on receptor tyrosine kinase (RTK) signaling” value [8] was “little or no activity”.
